Laboratory results published in patent US6268391A, “Benzylidene-1,3-dihydro-indol-2-one derivatives a receptor tyrosine kinase inhibitors, particularly of Raf kinases” (Glaxo Wellcome Inc., priority 1997, dated 2001).

Target: T1, Human cRaf1 (Homo sapiens, UniProt P04049)
T1 construct: poly-histidine (C); made in house
Assay: Raf kinase assay (cRaf1 assay / Raf/MEK cascade assay)
Assay type: biochemical
Conditions: Table 3; read-out: Raf Kinase activity
Description: The potency of cRaf1 dependent kinase activity was measured using one of two assay formats. The first measured cRaf1 catalyzed phosphorylation of MEK1, the natural substrate for cRaf1. This assay is referred to as the cRaf1 assay. The second measured the ability of cRaf1 to phosphorylate and activate MEK1. This assay is referred to as the Raf/MEK cascade assay.
Human cRaf1 tagged with poly histidine at the carboxyterminus was expressed in a baculovirus expression system and purfied by Ni chelate affinity chromatography. Human MEK1 was expressed in E. coli as a fusion protein with Glutathione-S-transferase, and purified by glutathione sepharose affinity chromatography. […] Reactions contained cRaf1 (20 nM), MEK1 (100-500 nM), [γ-^32 P]ATP ([…]), Mg^2+ (10 mM), MOPS (50 mM, pH 7.5). Reactions were incubated at room temperature for periods of time ranging from 20-120 minutes. Inhibitors were diluted in 100% DMSO prior to addition to the assay. Reactions were terminated with an equal volume of 0.5% phosphoric acid. MEK1 phosphorylation was detected by scintillation counting following collection of protein onto phosphocellulose filters.
Human cRaf1 and MEK1 were purified as described above. A peptide substrate phosphorylated by MEK1 was used as the final phosphoryl group acceptor. […] Assay conditions were the same as those described above except for the following modifications. Reactions contained cRaf1 (1-5 nM), MEK1 (60 nM), and peptide ([…]).

T1 sequence (P04049 whole entry): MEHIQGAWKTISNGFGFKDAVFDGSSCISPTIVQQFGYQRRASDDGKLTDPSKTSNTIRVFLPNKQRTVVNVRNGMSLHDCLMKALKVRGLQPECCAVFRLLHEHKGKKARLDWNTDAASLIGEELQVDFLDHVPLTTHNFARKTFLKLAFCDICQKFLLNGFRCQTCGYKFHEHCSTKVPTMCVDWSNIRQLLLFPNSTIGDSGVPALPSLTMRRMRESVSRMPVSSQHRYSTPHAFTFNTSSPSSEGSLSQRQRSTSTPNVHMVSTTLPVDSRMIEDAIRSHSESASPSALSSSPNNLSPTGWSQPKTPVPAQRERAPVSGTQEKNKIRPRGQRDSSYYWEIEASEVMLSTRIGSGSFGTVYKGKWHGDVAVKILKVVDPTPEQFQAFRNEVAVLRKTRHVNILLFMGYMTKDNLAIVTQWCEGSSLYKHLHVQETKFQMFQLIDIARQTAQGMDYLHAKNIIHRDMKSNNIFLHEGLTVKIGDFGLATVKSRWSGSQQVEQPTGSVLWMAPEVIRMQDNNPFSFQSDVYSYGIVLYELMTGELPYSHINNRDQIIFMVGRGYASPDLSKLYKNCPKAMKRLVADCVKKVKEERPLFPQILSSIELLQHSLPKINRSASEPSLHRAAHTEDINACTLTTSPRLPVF

| IC50 | Structure (SMILES) |
| --- | --- |
| < 1000 nM | Cc1nnc(-c2ccc3c(c2)C(=Cc2cc(Br)c(O)c(Br)c2)C(=O)N3)o1 [Example 145, 3-(3,5-Dibromo-4-hydroxy-benzylidene)-5-(5-methyl-[1,3,4]oxadiazol-2-yl)-1,3-dihydro-indol-2-one] |
| < 1000 nM | CC(=O)Nc1nc(-c2ccc3c(c2)C(=Cc2cc(Br)c(O)c(Br)c2)C(=O)N3)cs1 [Example 136, 5-(N-Acetyl-2-amino-thiazol-4-yl)-3-(3,5-dibromo-4-hydroxy-benzylidene)-1,3-dihydro-indol-2-one] |
| < 1000 nM | NS(=O)(=O)c1ccc2c(c1)C(=Cc1cc(Br)c(O)c(Br)c1)C(=O)N2 [Example 33, 3-(3,5-Dibromo-4-hydroxy-benzylidene)-2-oxo-2,3-dihydro-1H-indole-5-sulfonic acid amide] |
| < 1000 nM | Cc1nc(-c2ccc3c(c2)C(=Cc2cc(Cl)c(O)c(Cl)c2)C(=O)N3)cs1 [Example 4] |
| < 1000 nM | CCc1nc(-c2ccc3c(c2)C(=Cc2cc(Br)c(O)c(Br)c2)C(=O)N3)cs1 [Example 19, 3-(3,5-Dibromo-4-hydroxy-benzylidene)-5-(2-ethyl-thiazol-4-yl)-1,3-dihydro-indol-2-one] |
| < 1000 nM | CN(C)CCCNc1nc(-c2ccc3c(c2)C(=Cc2cc(Br)c(O)c(Br)c2)C(=O)N3)cs1 [Example 180, 3-[(3,5-Dibromo-4-hydroxyphenyl)methylidene]-5-(2-[3-(dimethylamino)propyl]amino-1,3-thiazol-4-yl)-1,3-dihydro-2H-indol-2-one] |

Continued, molecule first:

| Structure (SMILES) | IC50 |
| --- | --- |
| COc1cc(C=C2C(=O)Nc3ccccc32)cc(Cl)c1O [Example 49, 3-(3-Chloro-4-hydroxy-5-methoxy-benzylidene)-1,3-dihydro-indol-2-one] | 1000 to 10000 nM |
| O=C1Nc2ccc([N+](=O)[O-])cc2C1=Cc1cc(Cl)c(O)c(Cl)c1 [Example 65, 3-(3,5-Dichloro-4-hydroxy-benzylidene)-5-nitro-1,3-dihydro-indol-2-one] | < 1000 nM |
| CC(=O)Oc1c(Br)cc(C=C2C(=O)Nc3ccc(Cl)cc32)cc1Br [Example 103, 2,6-Dibromo-4-[(5-chloro-2-oxo-1,2-dihydro-3H-indol-3-ylidene)methyl]phenyl acetate] | 10000 to 100000 nM |
| O=C1Nc2ccc(Cl)cc2C1=Cc1cc(I)c(O)c(I)c1 [Example 55, 5-Chloro-3-(3,5-diiodo-4-hydroxy-benzylidene)-1,3-dihydro-indol-2-one] | < 1000 nM |
| COc1cc(C=C2C(=O)Nc3ccc(Br)cc32)cc(Br)c1O [Example 57, 5-Bromo-3-(3-bromo-4-hydroxy-5-methoxy-benzylidene)-1,3-dihydro-indol-2-one] | < 1000 nM |
| O=C1Nc2ccc(S(=O)(=O)N3CCOCC3)cc2C1=Cc1cc(Cl)c(O)c(Cl)c1 [Example 116, 3-(3,5-Dichloro-4-hydroxy-benzylidene)-5-(morpholine-4-sulfonyl)-1,3-dihydro-indol-2-one] | < 1000 nM |
| O=C1Nc2ccc(S(=O)(=O)N(CCO)CCO)cc2C1=Cc1cc(Br)c(O)c(Br)c1 [Example 157, 3-[(3,5-Dibromo-4-hydroxyphenyl)methylidene]-N,N-bis(2-hydroxyethyl)-2-oxo-5-indolinesulfonamide] | < 1000 nM |
| COc1cc(C=C2C(=O)Nc3cc(F)c(F)cc32)cc(Br)c1O [Example 58, 3-(3-Bromo-4-hydroxy-5-methoxy-benzylidene)-5,6-difluoro-1,3-dihydro-indol-2-one] | < 1000 nM |
| CCN(CC)S(=O)(=O)c1ccc2c(c1)C(=Cc1cc(Br)c(O)c(Br)c1)C(=O)N2 [Example 34, 3-(3,5-Dibromo-4-hydroxy-benzylidene)-2-oxo-2,3 dihydro-1H-indole-5-sulfonic acid N,N-diethylamide] | < 1000 nM |
| O=C1Nc2ccc(S(=O)(=O)N3CCCC3)cc2C1=Cc1cc(Cl)c(O)c(Cl)c1 [Example 100, 3-(3,5-Dichloro-4-hydroxy-benzylidene)-5-(pyrrolidine-1-sulfonyl)-1,3-dihydro-indol-2-one] | < 1000 nM |
